According to ChEMBL document CHEMBL1909046, “DrugMatrix in vitro pharmacology data”:

How the values were obtained:
Cytochrome P450 2A6 = target: T1, Cytochrome P450 2A6 (Homo sapiens, UniProt P11509); details: bti-tn-5b1-4
T1 sequence (P11509 whole entry): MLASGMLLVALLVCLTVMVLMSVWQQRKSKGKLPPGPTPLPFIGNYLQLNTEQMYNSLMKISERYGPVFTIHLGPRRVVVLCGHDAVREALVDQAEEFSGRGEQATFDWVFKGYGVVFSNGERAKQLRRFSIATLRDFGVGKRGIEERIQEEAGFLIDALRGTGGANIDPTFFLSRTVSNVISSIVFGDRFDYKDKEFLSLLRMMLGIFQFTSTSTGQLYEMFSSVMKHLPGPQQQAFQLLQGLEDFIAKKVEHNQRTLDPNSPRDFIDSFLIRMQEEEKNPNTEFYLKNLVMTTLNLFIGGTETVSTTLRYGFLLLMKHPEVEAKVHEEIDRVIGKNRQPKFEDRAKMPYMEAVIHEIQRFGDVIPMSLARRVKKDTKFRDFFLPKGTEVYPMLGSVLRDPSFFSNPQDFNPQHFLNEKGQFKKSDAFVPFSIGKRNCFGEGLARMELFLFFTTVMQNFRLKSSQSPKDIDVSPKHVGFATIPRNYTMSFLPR

Melanocortin receptor 4 = Melanocortin receptor 4 (Homo sapiens, UniProt P32245); assay type: cell membranes, Membrane; details: hek293
Chain of Melanocortin receptor 4 (P32245 whole entry): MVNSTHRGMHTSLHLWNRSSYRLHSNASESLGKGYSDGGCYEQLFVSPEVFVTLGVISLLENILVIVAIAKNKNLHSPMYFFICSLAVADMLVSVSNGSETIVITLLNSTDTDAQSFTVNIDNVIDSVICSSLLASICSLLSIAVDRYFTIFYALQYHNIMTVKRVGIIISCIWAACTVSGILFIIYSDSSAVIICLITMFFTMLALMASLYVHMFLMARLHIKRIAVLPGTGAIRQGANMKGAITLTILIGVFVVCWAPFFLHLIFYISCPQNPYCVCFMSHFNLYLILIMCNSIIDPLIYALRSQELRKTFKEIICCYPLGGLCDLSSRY

Nitric oxide synthase 1 = Nitric oxide synthase 1 (Rattus norvegicus, UniProt P29476); assay type: tissue-based, Cerebellum
Chain of Nitric oxide synthase 1 (P29476 whole entry): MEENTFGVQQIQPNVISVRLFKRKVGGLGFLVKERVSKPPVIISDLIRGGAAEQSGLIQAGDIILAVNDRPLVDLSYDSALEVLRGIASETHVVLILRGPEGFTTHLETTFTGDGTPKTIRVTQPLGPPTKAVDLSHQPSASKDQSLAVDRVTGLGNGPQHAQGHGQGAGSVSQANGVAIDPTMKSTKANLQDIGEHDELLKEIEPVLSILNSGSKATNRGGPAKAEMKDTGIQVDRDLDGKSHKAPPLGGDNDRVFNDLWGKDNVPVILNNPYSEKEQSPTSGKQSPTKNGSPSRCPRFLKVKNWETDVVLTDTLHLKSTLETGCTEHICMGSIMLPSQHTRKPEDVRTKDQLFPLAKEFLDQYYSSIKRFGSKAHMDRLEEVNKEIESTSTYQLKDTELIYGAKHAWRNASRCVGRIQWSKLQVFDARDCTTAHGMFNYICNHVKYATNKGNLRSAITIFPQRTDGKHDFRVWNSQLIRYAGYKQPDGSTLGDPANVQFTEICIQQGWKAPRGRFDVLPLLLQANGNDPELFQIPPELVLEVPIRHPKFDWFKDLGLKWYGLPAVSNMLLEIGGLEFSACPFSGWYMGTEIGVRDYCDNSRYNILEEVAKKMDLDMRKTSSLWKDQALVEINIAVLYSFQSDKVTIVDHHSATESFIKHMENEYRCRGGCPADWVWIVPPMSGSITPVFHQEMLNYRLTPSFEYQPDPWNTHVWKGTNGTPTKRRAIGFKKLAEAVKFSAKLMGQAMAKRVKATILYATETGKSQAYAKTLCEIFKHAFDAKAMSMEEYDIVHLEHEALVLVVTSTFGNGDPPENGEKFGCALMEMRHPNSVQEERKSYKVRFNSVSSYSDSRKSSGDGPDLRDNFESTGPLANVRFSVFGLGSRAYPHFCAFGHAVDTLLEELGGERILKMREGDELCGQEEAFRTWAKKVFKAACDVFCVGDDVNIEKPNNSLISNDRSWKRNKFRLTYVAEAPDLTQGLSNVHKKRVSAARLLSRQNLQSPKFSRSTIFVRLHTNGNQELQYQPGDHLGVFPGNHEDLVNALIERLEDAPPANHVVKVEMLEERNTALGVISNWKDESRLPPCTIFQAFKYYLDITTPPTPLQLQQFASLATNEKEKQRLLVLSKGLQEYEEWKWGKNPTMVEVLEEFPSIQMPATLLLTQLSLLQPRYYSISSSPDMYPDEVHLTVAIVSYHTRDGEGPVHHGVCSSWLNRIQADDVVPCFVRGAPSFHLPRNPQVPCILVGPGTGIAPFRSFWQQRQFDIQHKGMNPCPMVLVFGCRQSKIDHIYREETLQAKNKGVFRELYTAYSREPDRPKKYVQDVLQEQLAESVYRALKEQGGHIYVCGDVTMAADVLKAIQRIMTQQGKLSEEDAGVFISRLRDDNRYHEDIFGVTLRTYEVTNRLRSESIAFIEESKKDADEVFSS

[1] = target: T2, Neuropeptide Y receptor type 1 (Homo sapiens, UniProt P25929); assay type: cell membranes, Membrane; details: sk-n-mc
T2 sequence (P25929 whole entry): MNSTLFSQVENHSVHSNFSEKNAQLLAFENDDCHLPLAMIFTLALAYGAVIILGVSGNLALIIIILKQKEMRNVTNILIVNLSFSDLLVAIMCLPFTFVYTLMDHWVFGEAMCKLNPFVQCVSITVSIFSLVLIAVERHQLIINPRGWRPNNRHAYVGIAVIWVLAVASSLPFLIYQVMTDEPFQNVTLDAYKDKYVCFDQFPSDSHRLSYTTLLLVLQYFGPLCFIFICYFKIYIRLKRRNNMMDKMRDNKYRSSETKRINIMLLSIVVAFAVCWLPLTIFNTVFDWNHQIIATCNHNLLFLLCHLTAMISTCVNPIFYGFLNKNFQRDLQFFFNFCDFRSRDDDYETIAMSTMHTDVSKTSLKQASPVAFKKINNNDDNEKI

Adenosine receptor A1 = target: T3, Adenosine receptor A1 (Homo sapiens, UniProt P30542); assay type: cell membranes, CHO, Membrane;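 note: radioligand binding assay at the adenosine A1 receptor, with DPCPX serving as the labelled ligand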
T3 sequence (P30542 whole entry): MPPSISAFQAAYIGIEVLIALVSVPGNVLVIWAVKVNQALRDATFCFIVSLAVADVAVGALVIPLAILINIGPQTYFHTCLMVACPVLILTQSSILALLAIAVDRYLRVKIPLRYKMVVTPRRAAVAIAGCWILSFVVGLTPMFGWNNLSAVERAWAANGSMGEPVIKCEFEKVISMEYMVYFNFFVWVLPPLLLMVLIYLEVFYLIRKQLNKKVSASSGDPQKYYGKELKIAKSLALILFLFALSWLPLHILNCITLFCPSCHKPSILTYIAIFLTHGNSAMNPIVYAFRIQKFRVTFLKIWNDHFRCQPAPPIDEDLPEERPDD

Cytochrome P450 1A2 = target: T4, Cytochrome P450 1A2 (Homo sapiens, UniProt P05177); details: bti-tn-5b1-4
T4 sequence (P05177 whole entry): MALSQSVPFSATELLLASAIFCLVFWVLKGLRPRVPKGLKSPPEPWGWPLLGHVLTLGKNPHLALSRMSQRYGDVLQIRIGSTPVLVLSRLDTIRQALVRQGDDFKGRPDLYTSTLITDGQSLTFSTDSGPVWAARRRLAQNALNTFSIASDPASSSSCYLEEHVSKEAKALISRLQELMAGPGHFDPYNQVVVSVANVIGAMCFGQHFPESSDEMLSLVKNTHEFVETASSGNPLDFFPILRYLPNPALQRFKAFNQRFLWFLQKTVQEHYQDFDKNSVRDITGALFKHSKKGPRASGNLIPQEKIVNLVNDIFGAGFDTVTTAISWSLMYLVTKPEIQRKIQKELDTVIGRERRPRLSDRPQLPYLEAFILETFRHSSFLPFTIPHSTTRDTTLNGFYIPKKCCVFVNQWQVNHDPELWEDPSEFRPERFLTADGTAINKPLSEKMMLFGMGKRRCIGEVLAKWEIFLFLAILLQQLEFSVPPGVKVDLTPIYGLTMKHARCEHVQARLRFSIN

[2] = target: Protein kinase C alpha type (Homo sapiens, UniProt P17252); assay type: cell-based; details: sf9;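 note: inhibition of PKCalpha kinase activity measured in an enzyme assay with histone as the phosphorylation substrate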
Cathepsin G = target: T5, Cathepsin G (Homo sapiens, UniProt P08311); assay type: tissue-based; details: neutrophil;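 note: inhibition of Cathepsin G enzyme activity, tested on an AMC-conjugated peptide substrate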
T5 sequence (P08311 whole entry): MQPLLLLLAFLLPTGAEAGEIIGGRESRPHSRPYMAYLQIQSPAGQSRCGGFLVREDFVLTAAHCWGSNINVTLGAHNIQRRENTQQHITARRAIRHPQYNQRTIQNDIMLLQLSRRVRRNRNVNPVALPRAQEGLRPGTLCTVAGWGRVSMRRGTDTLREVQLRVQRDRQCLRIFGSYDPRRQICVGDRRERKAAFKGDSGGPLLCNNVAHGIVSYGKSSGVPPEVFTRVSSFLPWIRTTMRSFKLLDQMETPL

[3] = target: T6, C-X-C chemokine receptor type 1 (Homo sapiens, UniProt P25024)
T6 sequence (P25024 whole entry): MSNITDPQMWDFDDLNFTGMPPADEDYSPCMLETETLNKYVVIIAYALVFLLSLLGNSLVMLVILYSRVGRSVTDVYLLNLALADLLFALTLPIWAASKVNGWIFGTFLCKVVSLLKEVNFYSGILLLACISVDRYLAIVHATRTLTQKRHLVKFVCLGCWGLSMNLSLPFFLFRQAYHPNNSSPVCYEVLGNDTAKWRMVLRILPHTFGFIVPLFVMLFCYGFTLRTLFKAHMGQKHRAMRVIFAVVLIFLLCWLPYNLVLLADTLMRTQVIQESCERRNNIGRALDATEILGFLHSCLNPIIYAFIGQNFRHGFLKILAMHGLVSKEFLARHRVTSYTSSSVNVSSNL
Note: in other assays of this panel Not Active means under 50% inhibition at 10 µM.

CN(C)C(=O)C(CCN1CCC(O)(c2ccc(Cl)cc2)CC1)(c1ccccc1)c1ccccc1 [LOPERAMIDE]
IC50 (Cytochrome P450 2A6): Not Active | Ki (Cytochrome P450 2A6): Not Active | IC50 (Melanocortin receptor 4): Not Active | IC50 (Nitric oxide synthase 1): Not Active | IC50 [1]: Not Active | IC50 (Adenosine receptor A1; cho): Not Active | IC50 (Cytochrome P450 1A2): Not Active | Ki (Cytochrome P450 1A2): Not Active | IC50 [2]: Not Active | IC50 (Cathepsin G): Not Active | IC50 [3]: Not Active

Clc1ccc(COC(Cn2ccnc2)c2ccc(Cl)cc2Cl)c(Cl)c1 (centres undefined) [MICONAZOLE]
IC50 (Cytochrome P450 2A6): Not Active | Ki (Cytochrome P450 2A6): Not Active | IC50 (Nitric oxide synthase 1): Not Active | IC50 [1]: Not Active | IC50 (Cytochrome P450 1A2): Not Active | Ki (Cytochrome P450 1A2): Not Active | IC50 [2]: Not Active | IC50 (Cathepsin G): Not Active | IC50 [3]: Not Active

Oc1ccc2c3c1O[C@H]1[C@@H](O)CC[C@@]4(O)[C@@H](C2)N(CC2CCC2)CC[C@]314 [NALBUPHINE]
IC50 (Melanocortin receptor 4): Not Active | IC50 (Nitric oxide synthase 1): Not Active | IC50 [1]: Not Active | IC50 (Adenosine receptor A1; cho): Not Active | IC50 [2]: Not Active | IC50 (Cathepsin G): Not Active | IC50 [3]: Not Active

C[C@]12C=CC(=O)C=C1CC[C@@H]1[C@@H]2C(=O)C[C@@]2(C)[C@H]1CC[C@]2(O)C(=O)CO [PREDNISONE]
IC50 (Melanocortin receptor 4): Not Active | IC50 (Nitric oxide synthase 1): Not Active | IC50 [1]: Not Active | IC50 (Adenosine receptor A1; cho): Not Active | IC50 [2]: Not Active | IC50 (Cathepsin G): Not Active | IC50 [3]: Not Active

OCCOCCN1CCN(C2=Nc3ccccc3Sc3ccccc32)CC1 [QUETIAPINE]
IC50 (Cytochrome P450 2A6): Not Active | Ki (Cytochrome P450 2A6): Not Active | IC50 (Melanocortin receptor 4): Not Active | IC50 (Nitric oxide synthase 1): Not Active | IC50 [1]: Not Active | IC50 (Adenosine receptor A1; cho): Not Active | IC50 (Cytochrome P450 1A2): Not Active | Ki (Cytochrome P450 1A2): Not Active | IC50 [2]: Not Active | IC50 (Cathepsin G): Not Active | IC50 [3]: Not Active

COC(=O)[C@H]1[C@H]2C[C@@H]3c4[nH]c5cc(OC)ccc5c4CCN3C[C@H]2C[C@@H](OC(=O)c2cc(OC)c(OC)c(OC)c2)[C@@H]1OC [RESERPINE]
IC50 (Cytochrome P450 2A6): Not Active | Ki (Cytochrome P450 2A6): Not Active | IC50 (Melanocortin receptor 4): Not Active | IC50 (Nitric oxide synthase 1): Not Active | IC50 [1]: Not Active | IC50 (Adenosine receptor A1; cho): Not Active | IC50 (Cytochrome P450 1A2): Not Active | Ki (Cytochrome P450 1A2): Not Active | IC50 [2]: Not Active | IC50 (Cathepsin G): Not Active | IC50 [3]: Not Active

C[S+]([O-])c1ccc(-c2nc(-c3ccncc3)c(-c3ccc(F)cc3)[nH]2)cc1 (centres undefined) [SB-203580]
IC50 (Cytochrome P450 2A6): Not Active | Ki (Cytochrome P450 2A6): Not Active | IC50 (Melanocortin receptor 4): Not Active | IC50 (Nitric oxide synthase 1): Not Active | IC50 [1]: Not Active | IC50 (Adenosine receptor A1; read-out: IC50): 2950 nM | Ki (Adenosine receptor A1; read-out: Ki): 1720 nM | IC50 [2]: Not Active | IC50 (Cathepsin G): Not Active | IC50 [3]: Not Active

CCCCCCCCNC(C)C(O)c1ccc(SC(C)C)cc1 (centres undefined) [SULOCTIDIL]
IC50 (Cytochrome P450 2A6): Not Active | Ki (Cytochrome P450 2A6): Not Active | IC50 (Melanocortin receptor 4): Not Active | IC50 (Nitric oxide synthase 1): Not Active | IC50 [1]: Not Active | IC50 (Adenosine receptor A1; cho): Not Active | IC50 [2]: Not Active | IC50 (Cathepsin G): Not Active | IC50 [3]: Not Active

CN1CCN(CCCN2c3ccccc3Sc3ccc(C(F)(F)F)cc32)CC1 [TRIFLUOPERAZINE]
IC50 (Cytochrome P450 2A6): Not Active | Ki (Cytochrome P450 2A6): Not Active | IC50 (Melanocortin receptor 4): Not Active | IC50 (Nitric oxide synthase 1): Not Active | IC50 [1]: Not Active | IC50 (Adenosine receptor A1; cho): Not Active | IC50 [2]: Not Active | IC50 (Cathepsin G): Not Active | IC50 [3]: Not Active
